Experiments:
Design in all cases: scale not given: the % may be the effect or the level left
[1] = biological target: Mitogen-activated protein kinase kinase kinase 11 (Homo sapiens) (UniProt Q16584); test: Inhibition of human MLK3 assessed as enzyme activity at 1 uM using myelin basic protein as substrate preincubated for 20 mins followed by [gamma-33P]-ATP addition and measured after 120 mins by radiometric Hot-SpotSM Kinase assay relative to control
[2] = biological target: CDK4/Cyclin D3 (Homo sapiens) (UniProt P11802+P30281); test: Inhibition of human CDK4/cyclin D3 assessed as enzyme activity at 1 uM using RB-CTF as substrate preincubated for 20 mins followed by [gamma-33P]-ATP addition and measured after 120 mins by radiometric Hot-SpotSM Kinase assay relative to control; type: protein-complex assay
[3] = biological target: T1, Cytoplasmic tyrosine-protein kinase BMX (Homo sapiens) (UniProt P51813); test: Inhibition of human BMX assessed as enzyme activity at 1 uM using poly[Glu:Tyr] (4:1) as substrate preincubated for 20 mins followed by [gamma-33P]-ATP addition and measured after 120 mins by radiometric Hot-SpotSM Kinase assay relative to control
T1 sequence (whole entry): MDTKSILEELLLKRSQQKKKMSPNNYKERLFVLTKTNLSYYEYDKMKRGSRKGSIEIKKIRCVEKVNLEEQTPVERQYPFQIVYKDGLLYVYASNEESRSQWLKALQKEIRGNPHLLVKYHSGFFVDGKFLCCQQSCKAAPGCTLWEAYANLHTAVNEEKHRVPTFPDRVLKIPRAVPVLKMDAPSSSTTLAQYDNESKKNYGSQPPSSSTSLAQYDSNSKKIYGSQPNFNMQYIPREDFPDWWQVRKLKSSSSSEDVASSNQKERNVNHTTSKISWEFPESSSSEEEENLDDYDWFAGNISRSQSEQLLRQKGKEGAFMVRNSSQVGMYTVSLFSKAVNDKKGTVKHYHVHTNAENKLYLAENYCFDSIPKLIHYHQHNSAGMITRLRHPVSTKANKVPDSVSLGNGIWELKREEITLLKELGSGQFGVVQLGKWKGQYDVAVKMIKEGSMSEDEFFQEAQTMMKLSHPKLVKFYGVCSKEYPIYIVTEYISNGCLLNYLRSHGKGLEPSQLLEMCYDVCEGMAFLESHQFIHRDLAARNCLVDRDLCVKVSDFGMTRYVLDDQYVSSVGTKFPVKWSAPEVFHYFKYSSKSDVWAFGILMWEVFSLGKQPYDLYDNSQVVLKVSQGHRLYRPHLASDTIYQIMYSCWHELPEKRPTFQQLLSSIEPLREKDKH

[4] = biological target: CDK2/Cyclin A1 (Homo sapiens) (UniProt P24941+P78396); test: Inhibition of human CDK2/Cyclin A1 assessed as enzyme activity at 1 uM using RB Protein as substrate preincubated for 20 mins followed by [gamma-33P]-ATP addition and measured after 120 mins by radiometric Hot-SpotSM Kinase assay relative to control; type: protein-complex assay
[5] = biological target: Fibroblast growth factor receptor 3 (Homo sapiens) (UniProt P22607); test: Inhibition of human FGFR3 assessed as enzyme activity at 1 uM using poly[Glu:Tyr] (4:1) as substrate preincubated for 20 mins followed by [gamma-33P]-ATP addition and measured after 120 mins by radiometric Hot-SpotSM Kinase assay relative to control
Chain of Fibroblast growth factor receptor 3 (Homo sapiens) (P22607 23-806 limits assumed): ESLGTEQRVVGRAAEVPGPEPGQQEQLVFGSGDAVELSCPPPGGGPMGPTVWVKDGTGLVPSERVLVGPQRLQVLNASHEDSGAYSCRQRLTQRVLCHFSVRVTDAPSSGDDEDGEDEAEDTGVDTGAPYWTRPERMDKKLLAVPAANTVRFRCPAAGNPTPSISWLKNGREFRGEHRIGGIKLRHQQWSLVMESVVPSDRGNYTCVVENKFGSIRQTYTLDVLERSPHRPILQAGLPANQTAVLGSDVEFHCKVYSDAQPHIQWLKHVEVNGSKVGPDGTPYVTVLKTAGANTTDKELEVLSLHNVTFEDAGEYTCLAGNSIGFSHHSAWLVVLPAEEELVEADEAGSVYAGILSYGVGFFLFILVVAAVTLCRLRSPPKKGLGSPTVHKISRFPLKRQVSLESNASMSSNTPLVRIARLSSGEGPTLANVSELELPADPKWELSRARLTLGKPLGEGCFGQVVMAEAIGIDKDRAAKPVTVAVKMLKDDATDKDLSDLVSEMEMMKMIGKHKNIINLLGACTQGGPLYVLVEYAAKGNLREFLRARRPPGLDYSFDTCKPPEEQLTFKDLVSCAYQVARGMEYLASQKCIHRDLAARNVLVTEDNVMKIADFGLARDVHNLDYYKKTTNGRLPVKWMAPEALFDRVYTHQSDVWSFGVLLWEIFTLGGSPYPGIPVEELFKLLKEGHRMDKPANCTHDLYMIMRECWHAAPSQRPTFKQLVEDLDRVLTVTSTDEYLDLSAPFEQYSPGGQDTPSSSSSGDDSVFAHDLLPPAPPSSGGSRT

[6] = biological target: Epidermal growth factor receptor (Homo sapiens) (UniProt P00533); test: Inhibition of human EGFR assessed as enzyme activity at 1 uM using poly[Glu:Tyr] (4:1) as substrate preincubated for 20 mins followed by [gamma-33P]-ATP addition and measured after 120 mins by radiometric Hot-SpotSM Kinase assay relative to control
Chain of Epidermal growth factor receptor (Homo sapiens) (P00533 whole entry): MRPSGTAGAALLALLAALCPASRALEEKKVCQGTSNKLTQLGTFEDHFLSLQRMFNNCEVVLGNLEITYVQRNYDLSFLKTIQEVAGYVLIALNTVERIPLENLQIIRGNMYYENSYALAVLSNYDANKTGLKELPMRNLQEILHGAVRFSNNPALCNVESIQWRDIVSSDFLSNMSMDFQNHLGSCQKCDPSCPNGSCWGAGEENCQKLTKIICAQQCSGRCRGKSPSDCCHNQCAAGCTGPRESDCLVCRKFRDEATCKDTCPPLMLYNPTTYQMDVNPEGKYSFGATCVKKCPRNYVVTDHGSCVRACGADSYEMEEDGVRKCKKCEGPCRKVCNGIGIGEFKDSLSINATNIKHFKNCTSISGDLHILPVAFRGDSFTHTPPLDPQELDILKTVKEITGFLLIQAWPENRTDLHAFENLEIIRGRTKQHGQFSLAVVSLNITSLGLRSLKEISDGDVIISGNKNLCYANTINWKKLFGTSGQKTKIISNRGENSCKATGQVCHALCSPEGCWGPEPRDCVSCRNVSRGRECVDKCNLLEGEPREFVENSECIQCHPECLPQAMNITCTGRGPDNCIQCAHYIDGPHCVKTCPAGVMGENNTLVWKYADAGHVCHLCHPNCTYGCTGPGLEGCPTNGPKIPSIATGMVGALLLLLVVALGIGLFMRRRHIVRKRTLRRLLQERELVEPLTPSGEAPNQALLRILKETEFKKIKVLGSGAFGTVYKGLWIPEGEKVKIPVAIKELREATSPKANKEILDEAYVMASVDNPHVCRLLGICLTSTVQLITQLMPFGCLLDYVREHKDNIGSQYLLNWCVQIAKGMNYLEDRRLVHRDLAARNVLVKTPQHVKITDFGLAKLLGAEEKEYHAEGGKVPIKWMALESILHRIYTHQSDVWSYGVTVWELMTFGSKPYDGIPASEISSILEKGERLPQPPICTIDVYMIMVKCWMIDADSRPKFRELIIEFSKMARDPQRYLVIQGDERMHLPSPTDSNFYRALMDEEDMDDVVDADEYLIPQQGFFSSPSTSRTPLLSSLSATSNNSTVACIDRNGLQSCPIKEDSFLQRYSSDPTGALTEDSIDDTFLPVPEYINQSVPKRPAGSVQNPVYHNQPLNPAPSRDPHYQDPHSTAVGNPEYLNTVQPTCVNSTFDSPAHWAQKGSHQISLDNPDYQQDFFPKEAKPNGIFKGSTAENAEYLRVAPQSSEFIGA

[7] = biological target: Cyclin-Y/Cyclin-dependent kinase 16 (Homo sapiens) (UniProt Q00536+Q8ND76); test: Inhibition of human CDK16/cyclin Y assessed as enzyme activity at 1 uM using RB Protein as substrate preincubated for 20 mins followed by [gamma-33P]-ATP addition and measured after 120 mins by radiometric Hot-SpotSM Kinase assay relative to control; type: protein-complex assay
[8] = biological target: T2, Serine/threonine-protein kinase PLK4 (Homo sapiens) (UniProt O00444); test: Inhibition of human PLK4 assessed as enzyme activity at 1 uM using casein as substrate preincubated for 20 mins followed by [gamma-33P]-ATP addition and measured after 120 mins by radiometric Hot-SpotSM Kinase assay relative to control
T2 sequence (whole entry): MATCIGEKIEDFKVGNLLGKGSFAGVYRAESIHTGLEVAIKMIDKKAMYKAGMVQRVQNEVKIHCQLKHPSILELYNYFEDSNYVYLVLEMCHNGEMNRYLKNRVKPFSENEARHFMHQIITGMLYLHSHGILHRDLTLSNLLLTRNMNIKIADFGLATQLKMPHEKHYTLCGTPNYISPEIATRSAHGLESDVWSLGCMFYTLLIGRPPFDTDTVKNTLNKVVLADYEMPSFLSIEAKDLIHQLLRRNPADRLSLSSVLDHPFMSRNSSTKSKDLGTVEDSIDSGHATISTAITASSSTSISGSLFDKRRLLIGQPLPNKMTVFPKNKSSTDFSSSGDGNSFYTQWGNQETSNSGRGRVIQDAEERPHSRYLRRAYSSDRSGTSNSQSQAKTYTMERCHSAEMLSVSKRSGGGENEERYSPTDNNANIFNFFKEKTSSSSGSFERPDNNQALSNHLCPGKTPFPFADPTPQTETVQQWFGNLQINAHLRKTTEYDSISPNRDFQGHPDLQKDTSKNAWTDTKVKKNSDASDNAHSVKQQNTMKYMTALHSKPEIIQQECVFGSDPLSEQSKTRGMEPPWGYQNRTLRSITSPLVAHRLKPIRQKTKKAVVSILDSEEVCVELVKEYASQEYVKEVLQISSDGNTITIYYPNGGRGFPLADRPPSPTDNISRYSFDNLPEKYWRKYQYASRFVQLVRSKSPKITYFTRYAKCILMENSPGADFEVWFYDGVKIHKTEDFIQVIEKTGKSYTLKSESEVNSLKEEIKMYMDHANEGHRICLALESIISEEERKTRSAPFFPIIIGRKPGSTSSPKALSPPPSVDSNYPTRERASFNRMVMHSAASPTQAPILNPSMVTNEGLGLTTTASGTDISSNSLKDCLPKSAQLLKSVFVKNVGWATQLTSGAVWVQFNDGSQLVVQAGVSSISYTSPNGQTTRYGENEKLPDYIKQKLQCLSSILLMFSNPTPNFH

[9] = biological target: Platelet-derived growth factor receptor beta (Homo sapiens) (UniProt P09619); test: Inhibition of human PDGFRb assessed as enzyme activity at 1 uM using poly[Glu:Tyr] (4:1) as substrate preincubated for 20 mins followed by [gamma-33P]-ATP addition and measured after 120 mins by radiometric Hot-SpotSM Kinase assay relative to control
Chain of Platelet-derived growth factor receptor beta (Homo sapiens) (P09619 whole entry): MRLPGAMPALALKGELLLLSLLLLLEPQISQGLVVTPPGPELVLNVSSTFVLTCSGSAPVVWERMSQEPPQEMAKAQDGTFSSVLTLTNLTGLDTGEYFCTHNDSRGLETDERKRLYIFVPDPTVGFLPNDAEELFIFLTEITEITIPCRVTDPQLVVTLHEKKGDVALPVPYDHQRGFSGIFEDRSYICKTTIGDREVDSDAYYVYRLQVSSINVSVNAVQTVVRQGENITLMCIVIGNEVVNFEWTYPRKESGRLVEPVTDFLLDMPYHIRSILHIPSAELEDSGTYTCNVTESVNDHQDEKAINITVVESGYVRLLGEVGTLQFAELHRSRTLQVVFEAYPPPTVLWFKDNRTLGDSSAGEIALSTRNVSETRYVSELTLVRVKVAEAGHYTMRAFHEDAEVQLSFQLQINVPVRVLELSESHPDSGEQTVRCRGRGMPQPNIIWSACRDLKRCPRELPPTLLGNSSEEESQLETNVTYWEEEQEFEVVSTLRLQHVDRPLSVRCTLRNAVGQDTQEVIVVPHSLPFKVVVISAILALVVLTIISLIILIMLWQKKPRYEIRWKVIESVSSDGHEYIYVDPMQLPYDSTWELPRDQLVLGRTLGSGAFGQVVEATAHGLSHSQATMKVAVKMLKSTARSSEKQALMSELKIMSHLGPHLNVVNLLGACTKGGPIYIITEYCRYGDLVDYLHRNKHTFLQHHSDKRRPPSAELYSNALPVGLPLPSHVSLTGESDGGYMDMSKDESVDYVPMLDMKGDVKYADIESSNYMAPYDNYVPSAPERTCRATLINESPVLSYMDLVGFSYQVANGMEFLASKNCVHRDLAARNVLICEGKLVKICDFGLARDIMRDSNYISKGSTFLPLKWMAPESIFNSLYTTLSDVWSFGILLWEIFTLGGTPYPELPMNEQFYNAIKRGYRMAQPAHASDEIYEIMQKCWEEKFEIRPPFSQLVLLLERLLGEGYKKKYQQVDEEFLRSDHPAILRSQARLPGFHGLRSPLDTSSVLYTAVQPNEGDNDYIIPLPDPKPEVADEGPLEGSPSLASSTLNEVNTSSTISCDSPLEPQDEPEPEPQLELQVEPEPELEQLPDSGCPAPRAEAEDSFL

[10] = biological target: Aurora kinase B (Homo sapiens) (UniProt Q96GD4); test: Inhibition of human Aurora B assessed as enzyme activity at 1 uM using H-LRRASLG as substrate preincubated for 20 mins followed by [gamma-33P]-ATP addition and measured after 120 mins by radiometric Hot-SpotSM Kinase assay relative to control
Chain of Aurora kinase B (Homo sapiens) (Q96GD4 whole entry): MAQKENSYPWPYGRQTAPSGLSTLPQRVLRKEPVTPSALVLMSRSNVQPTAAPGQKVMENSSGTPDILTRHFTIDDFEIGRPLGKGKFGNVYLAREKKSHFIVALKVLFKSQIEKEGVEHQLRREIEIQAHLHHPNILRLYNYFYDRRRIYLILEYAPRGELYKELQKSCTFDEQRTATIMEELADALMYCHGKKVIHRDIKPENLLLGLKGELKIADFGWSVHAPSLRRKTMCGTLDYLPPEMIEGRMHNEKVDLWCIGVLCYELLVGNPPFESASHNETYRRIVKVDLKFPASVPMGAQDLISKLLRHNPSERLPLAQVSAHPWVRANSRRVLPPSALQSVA

Chain of Mitogen-activated protein kinase kinase kinase 11 (Homo sapiens) (Q16584 whole entry, looked up): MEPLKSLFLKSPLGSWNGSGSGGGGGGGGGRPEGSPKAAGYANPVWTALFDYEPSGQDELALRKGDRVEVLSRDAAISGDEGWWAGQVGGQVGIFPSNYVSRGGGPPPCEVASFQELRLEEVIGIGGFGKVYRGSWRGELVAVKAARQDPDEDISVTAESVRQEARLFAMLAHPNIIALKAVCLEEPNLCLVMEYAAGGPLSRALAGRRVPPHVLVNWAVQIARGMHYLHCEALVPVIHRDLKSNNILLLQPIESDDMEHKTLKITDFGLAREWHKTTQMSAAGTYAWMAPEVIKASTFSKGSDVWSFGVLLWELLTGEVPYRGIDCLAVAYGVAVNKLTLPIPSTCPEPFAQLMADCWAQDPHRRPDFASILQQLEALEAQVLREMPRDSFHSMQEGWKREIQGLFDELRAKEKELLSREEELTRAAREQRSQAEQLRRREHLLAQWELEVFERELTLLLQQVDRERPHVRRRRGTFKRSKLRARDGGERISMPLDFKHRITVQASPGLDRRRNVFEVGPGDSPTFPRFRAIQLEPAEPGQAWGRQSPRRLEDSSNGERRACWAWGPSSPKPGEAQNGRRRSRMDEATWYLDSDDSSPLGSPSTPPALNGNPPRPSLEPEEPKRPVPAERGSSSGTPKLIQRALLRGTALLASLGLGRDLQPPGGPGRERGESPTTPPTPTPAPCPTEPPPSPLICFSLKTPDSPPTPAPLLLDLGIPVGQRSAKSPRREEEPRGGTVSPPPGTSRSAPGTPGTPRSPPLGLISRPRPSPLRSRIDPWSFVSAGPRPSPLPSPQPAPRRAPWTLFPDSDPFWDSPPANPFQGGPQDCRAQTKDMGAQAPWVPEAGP

| Compound | Activity [1] [%] | Activity [2] [%] | Activity [3] [%] | Activity [4] [%] | Activity [5] [%] | Activity [6] [%] | Activity [7] [%] | Activity [8] [%] | Activity [9] [%] | Activity [10] [%] |
| --- | --- | --- | --- | --- | --- | --- | --- | --- | --- | --- |
| CC[C@H](Nc1ncnc2[nH]cnc12)c1nc2cccc(F)c2c(=O)n1-c1ccccc1 | 79.8 | 99.3 | 87.8 | 86.7 | 88.8 | 95.4 | 96.5 | 99.9 | 102 | 95.6 |
| C[C@H](Nc1ncnc2nc[nH]c12)c1cc2cccc(Cl)c2c(=O)n1-c1ccccc1 | 75.1 | 97.5 | 86.4 | 79.7 | 93.2 | 99.1 | 97.7 | 91 | 97.8 | 95.6 |
| CC(C)Oc1ccc(-c2nn([C@@H](C)c3oc4ccc(F)cc4c(=O)c3-c3cccc(F)c3)c3ncnc(N)c23)cc1F [UMBRALISIB] | 80.9 | 98.8 | 87.3 | 78 | 94.3 | 97.7 | 98.5 | 102 | 104 | 97.2 |

Reference: ChEMBL document CHEMBL5715954, “Silencing c-Myc translation as a therapeutic strategy through targeting PI3Kδ and CK1ε in hematological malignancies” (Blood, 2017)
